Measurements: patent publication US9944654B2, “Nargenicin compounds and uses thereof as antibacterial agents” (priority 2014, dated 2018)
≈ marks a conversion by molar mass, not a printed value. Read-outs that look alike come from different tables or passages of the source.

Assays:
[1] = target: T1, E. coli DnaE (DNA polymerase III α-subunit from Escherichia coli) (Escherichia coli, UniProt P10443); assay: In vitro DnaE single enzyme assay (E. coli); format: biochemical
T1 construct: EcDnaE (E. coli DnaE residues 1-1160); 6xHis (N); made in house; host or cells: E. coli BL21(DE3)
T1 sequence (P10443 whole entry, the tested form may be a part): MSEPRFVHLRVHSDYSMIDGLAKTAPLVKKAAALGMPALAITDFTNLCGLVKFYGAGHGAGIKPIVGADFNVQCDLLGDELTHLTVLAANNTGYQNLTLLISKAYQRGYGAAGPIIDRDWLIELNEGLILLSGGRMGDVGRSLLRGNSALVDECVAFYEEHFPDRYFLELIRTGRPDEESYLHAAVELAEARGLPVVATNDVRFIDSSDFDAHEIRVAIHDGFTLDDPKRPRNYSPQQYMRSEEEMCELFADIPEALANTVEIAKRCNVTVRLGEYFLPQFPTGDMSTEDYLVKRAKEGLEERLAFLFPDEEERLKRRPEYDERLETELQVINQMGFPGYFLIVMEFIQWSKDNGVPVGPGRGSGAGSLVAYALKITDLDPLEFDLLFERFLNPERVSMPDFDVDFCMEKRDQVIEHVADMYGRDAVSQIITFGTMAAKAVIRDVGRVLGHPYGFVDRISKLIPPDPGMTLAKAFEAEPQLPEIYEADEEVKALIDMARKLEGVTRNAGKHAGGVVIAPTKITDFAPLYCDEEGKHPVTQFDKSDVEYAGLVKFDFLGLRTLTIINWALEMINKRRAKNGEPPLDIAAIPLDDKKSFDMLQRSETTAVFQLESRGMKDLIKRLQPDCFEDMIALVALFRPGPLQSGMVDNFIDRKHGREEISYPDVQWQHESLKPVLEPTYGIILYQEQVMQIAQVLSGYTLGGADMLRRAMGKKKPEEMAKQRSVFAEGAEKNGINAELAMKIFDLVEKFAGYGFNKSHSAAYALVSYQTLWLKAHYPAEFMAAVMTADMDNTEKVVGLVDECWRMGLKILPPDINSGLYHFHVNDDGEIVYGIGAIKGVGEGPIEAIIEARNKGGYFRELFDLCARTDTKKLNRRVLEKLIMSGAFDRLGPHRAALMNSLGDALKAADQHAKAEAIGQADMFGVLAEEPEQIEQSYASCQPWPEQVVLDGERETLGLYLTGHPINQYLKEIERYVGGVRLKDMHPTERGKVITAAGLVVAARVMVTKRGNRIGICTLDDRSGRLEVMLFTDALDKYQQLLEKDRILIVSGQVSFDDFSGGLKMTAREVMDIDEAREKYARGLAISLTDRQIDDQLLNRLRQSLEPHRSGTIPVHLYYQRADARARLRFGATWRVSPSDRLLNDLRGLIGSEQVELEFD
Method in brief: (§1)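 3H-dTTP (0.011 mM) incorporation into DNase I-activated calf thymus DNA, alongside the other three dNTPs at 0.025 mM, measured by filter counting after TCA precipitation. Reactions ran 30 min at 30° C., started with purified N-His DnaE: 0.8 μg/ml for E. coli, 0.05 μg/ml for S. aureus.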

[2] = target: T2, S. aureus DnaE (DNA polymerase III α-subunit homolog from Staphylococcus aureus) (Staphylococcus aureus, UniProt Q5HF71); assay: biochemical; format: biochemical
T2 construct: SaDnaE (S. aureus DnaE residues 1-1065); 6xHis (N); made in house; host or cells: E. coli BL21-AI
T2 sequence (Q5HF71 1-1065): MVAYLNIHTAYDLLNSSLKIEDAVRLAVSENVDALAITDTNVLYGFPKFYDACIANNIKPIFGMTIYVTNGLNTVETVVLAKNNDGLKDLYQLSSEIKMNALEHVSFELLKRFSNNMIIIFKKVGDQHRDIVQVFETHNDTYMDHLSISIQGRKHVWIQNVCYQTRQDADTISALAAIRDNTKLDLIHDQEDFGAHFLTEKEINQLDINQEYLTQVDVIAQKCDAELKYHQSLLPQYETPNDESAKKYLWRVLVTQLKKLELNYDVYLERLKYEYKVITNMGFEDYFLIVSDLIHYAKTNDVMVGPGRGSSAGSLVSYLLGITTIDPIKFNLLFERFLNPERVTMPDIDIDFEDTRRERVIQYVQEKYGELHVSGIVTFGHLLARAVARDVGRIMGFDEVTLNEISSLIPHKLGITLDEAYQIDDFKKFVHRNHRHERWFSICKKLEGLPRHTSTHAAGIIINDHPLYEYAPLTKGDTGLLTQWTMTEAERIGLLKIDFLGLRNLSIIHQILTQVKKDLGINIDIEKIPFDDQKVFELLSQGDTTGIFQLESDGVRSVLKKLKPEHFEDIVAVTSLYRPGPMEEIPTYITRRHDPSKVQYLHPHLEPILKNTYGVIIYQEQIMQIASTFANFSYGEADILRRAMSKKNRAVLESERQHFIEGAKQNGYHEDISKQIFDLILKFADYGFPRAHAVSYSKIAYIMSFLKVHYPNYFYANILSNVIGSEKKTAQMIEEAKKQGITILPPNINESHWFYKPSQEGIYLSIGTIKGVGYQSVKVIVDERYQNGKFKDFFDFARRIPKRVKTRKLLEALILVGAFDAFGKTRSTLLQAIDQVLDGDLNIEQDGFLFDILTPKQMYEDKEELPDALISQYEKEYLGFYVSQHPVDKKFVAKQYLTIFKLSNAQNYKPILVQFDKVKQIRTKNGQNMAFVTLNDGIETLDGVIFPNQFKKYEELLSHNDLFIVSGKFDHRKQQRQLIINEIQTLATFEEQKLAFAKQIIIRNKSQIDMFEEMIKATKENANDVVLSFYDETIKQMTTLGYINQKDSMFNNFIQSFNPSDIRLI
Method in brief: as §1

[3] = test system: Escherichia coli MB5747 (LS 883, tolC); assay: microbe, parasite or virus in culture; format: cell-based; conditions: * = some reduction of growth versus control at […]; for MIC: Escherichia coli, read-out: E. coli LS883 tolC (MIC), MHII broth; for E. coli LS883 tolC (MIC): MHII broth
[4] = test system: Pseudomonas aeruginosa MB5890 (CB1101, efflux-deleted); assay: microbe, parasite or virus in culture; format: cell-based; conditions: * = some reduction of growth versus control at […]; for MIC: Pseudomonas aeruginosa, read-out: P. aeruginosa MB5890 efflux-del (MIC), MHII broth; for P. aeruginosa MB5890 efflux-del (MIC): MHII broth
[5] = test system: Staphylococcus aureus MB6266 (MRSA COL); assay: Nargenicin antibacterial assay (MIC), S. aureus; format: cell-based; conditions: * = some reduction of growth versus control at […]; for MIC: Staphylococcus aureus, MRSA, read-out: S. aureus COL (MIC), MHII broth + 50% human serum; for S. aureus COL (MIC): MHII broth + 50% human serum
[6] = test system: Streptococcus pneumoniae MB6357 (CL 2883); assay: Nargenicin antibacterial assay (MIC), S. pneumoniae; format: cell-based; conditions: * = some reduction of growth versus control at […]; for MIC: Streptococcus pneumoniae, read-out: S. pneumoniae MB2883 (MIC), Isosensitest broth; for S. pneumoniae MB2883 (MIC): Isosensitest broth
[7] = read-out: E. coli DnaE IC50 (converted)
[8] = read-out: S. aureus DnaE IC50 (converted)

| Structure (SMILES) | IC50 [1, 7] | IC50 ([2]; S. aureus DnaE IC50) | MIC [3] | MIC [4] | MIC [5] | MIC [6] | IC50 ([1]; E. coli DnaE IC50) | IC50 [2, 8] | IC50 ([2]; read-out: S. aureus DnaE IC50) | E. coli LS883 tolC (MIC) [3] | P. aeruginosa MB5890 efflux-del (MIC) [4] | S. aureus COL (MIC) [5] | S. pneumoniae MB2883 (MIC) [6] | E. coli DnaE IC50 [1] | S. aureus DnaE IC50 [2] |
| --- | --- | --- | --- | --- | --- | --- | --- | --- | --- | --- | --- | --- | --- | --- | --- |
| CO[C@H]1C[C@H]2C=C[C@H]3[C@H]4O[C@]2(/C(C)=C/[C@@H](C)[C@@H]([C@@H](C)OC(=O)NCC(=O)O)OC1=O)[C@@H]3[C@H](O)[C@@H](C)[C@H]4OC(=O)c1ccc[nH]1 [Example 12] | 114 µM | < 0.00973 µM | 32 µg/mL (≈ 51.9 µM) | > 128 µg/mL | > 128 µg/mL | > 128 µg/mL | – | – | – | – | – | – | – | – | – |
| CO[C@H]1C[C@H]2C=C[C@H]3[C@H]4O[C@]2(/C(C)=C/[C@@H](C)[C@@H]([C@@H](C)O)OC1=O)[C@@H]3[C@H](O)C(C)[C@H]4C#N (stereo partly drawn) [Example 188, (3R,4S,7S,8aS,10aR,11R,12S,14R,14aS,14bS,E)-14-hydroxy-4-((R)-1-hydroxyethyl)-7-methoxy-1,3,13-trimethyl-6-oxo-3,4,6,7,8,8a,10a,11,12,13,14,14a-dodecahydro-11,14b-epoxynaphtho[2,1-e]oxecine-12-carbonitrile] | > 232 µM | 0.232 µM | 32 µg/mL (≈ 74.2 µM) | 64 µg/mL (≈ 148 µM) | 128 µg/mL | 128 µg/mL (≈ 297 µM) | – | – | – | – | – | – | – | – | – |
| C=CC[C@H]1[C@@H]2O[C@@]34/C(C)=C/[C@@H](C)[C@@H]([C@@H](C)O)OC(=O)[C@@H](OC)C[C@H]3C=C[C@@H]2[C@H]4C(=O)[C@@H]1C [Example 150, (3R,4S,7S,8aS,10aR,11S,12R,13R,14aR,14bS,E)-12-allyl-4-((R)-1-hydroxyethyl)-7-methoxy-1,3,13-trimethyl-3,4,8,8a,10a,11,12,13-octahydro-11,14b-epoxynaphtho[2,1-e]oxecine-6,14(7H,14aH)-dion] | – | – | > 64 µg/mL | > 64 µg/mL | > 64 µg/mL | 64 µg/mL (≈ 144 µM) | > 112 µM | 5.62 µM | – | – | – | – | – | – | – |
| CO[C@H]1CC2C=C[C@H]3[C@H]4O[C@]2(/C(C)=C/[C@@H](C)[C@@H](C(C)O)OC1=O)[C@@H]3[C@H](O)[C@@H](C)[C@H]4OC(=O)c1ccc[nH]1 (stereo partly drawn) [Nar, Nargenicin] | 0.776 to 5.04 µM | – | – | – | – | – | – | – | 0.000388 to 0.0116 µM | 0.25 to 0.5 µg/mL | 8 µg/mL | 0.25 to 0.5 µg/mL | >64 µg/mL | – | – |
| CO[C@H]1C[C@H]2C=C[C@H]3[C@H]4O[C@]2(/C(C)=C/[C@@H](C)[C@@H]([C@@H](C)OC(=O)OCC(C)(N)CO)OC1=O)[C@@H]3[C@H](O)[C@@H](C)[C@H]4OC(=O)c1ccc[nH]1.O=C(O)C(F)(F)F (stereo partly drawn) [Example 28] | > 131 µM | ~0.00657 µM | 2 µg/mL | 32 µg/mL | 2 µg/mL | 128 µg/mL | – | – | – | – | – | – | – | – | – |
| CO[C@H]1C[C@H]2C=CC3C4[C@H](O)[C@@H](C)[C@@H](OC(=O)c5ccc[nH]5)[C@@H]3O[C@]42/C(C)=C/[C@@H](C)[C@@H]([C@@H](C)OC(=O)C(=O)NCc2ccncc2)OC1=O [Example 115] | – | – | – | – | – | – | – | – | – | 0.5 µg/mL | 8 µg/mL | 0.5 µg/mL | >64 µg/mL | 9 µg/mL | <0.006 µg/mL |
| CO[C@H]1C[C@H]2C=C[C@H]3[C@H]4O[C@]2(/C(C)=C/[C@@H](C)[C@H](c2ccccc2)OC1=O)[C@@H]3[C@H](O)[C@@H](C)[C@H]4OC(=O)c1ccc[nH]1 [Example 52] | 73 µM | 1.1 µM | > 128 µg/mL | > 128 µg/mL | > 128 µg/mL | > 128 µg/mL | – | – | – | – | – | – | – | – | – |
| CO[C@H]1C[C@H]2C=C[C@H]3[C@H]4O[C@]2(/C(C)=C/[C@@H](C)[C@H](C)OC1=O)[C@@H]3[C@H](O)[C@@H](C)[C@H]4OC(=O)c1ccc[nH]1 [Example 48, (3R,4S,7S,8aS,10aR,11R,12R,13R,14R,14aS,14bS,E)-14-hydroxy-7-methoxy-1,3,4,13-tetramethyl-6-oxo-3,4,6,7,8,8a,10a,11,12,13,14,14a-dodecahydro-11,14b-epoxynaphtho[2,1-e]oxecin-12-yl 1H-pyrrole-2-carboxylate] | – | 0.165 µM | 64 µg/mL (≈ 132 µM) | > 128 µg/mL | > 128 µg/mL | 128 µg/mL (≈ 264 µM) | > 206 µM | – | – | – | – | – | – | – | – |
| CO[C@H]1CC2C=C[C@H]3[C@H]4O[C@]2(/C(C)=C/[C@@H](C)[C@@H](C(C)NC2CC2)OC1=O)[C@@H]3[C@H](O)[C@@H](C)[C@H]4OC(=O)c1ccc[nH]1 (stereo partly drawn) [Example 185] | > 180 µM | < 0.0108 µM | > 128 µg/mL | > 128 µg/mL | > 128 µg/mL | > 128 µg/mL | – | – | – | – | – | – | – | – | – |
| CO[C@H]1C[C@H]2C=C[C@H]3[C@H]4O[C@]2(/C(C)=C/[C@@H](C)[C@@H]([C@@H](C)O)OC1=O)[C@@H]3[C@H](O)C(C)[C@@H]4NCc1cccs1.O=C(O)C(F)(F)F (stereo partly drawn) [Example 153] | – | – | > 128 µg/mL | > 128 µg/mL | > 128 µg/mL | > 128 µg/mL | > 158 µM | 47.5 µM | – | – | – | – | – | – | – |
| CO[C@H]1C[C@H]2C=C[C@H]3[C@H]4O[C@]2(/C(C)=C/[C@@H](C)[C@@H]([C@@H](C)O)OC1=O)[C@@H]3[C@H](O)C(C)[C@@H]4NCc1ccncc1.O=C(O)C(F)(F)F (stereo partly drawn) [Example 154] | – | – | > 128 µg/mL | > 128 µg/mL | > 128 µg/mL | > 128 µg/mL | > 160 µM | 112 µM | – | – | – | – | – | – | – |
| CO[C@H]1C[C@H]2C=C[C@H]3[C@H]4O[C@]2(/C(C)=C/[C@@H](C)[C@@H]([C@@H](C)O)OC1=O)[C@@H]3[C@H](O)[C@@H](C)[C@H]4OC(=O)c1cc(Br)c[nH]1 [Example 46] | 16.8 µM | 0.0151 µM | 2 µg/mL (≈ 3.36 µM) | 128 µg/mL (≈ 215 µM) | 8 µg/mL | 64 µg/mL (≈ 108 µM) | – | – | – | – | – | – | – | – | – |
| CO[C@H]1C[C@H]2C=C[C@H]3[C@H]4O[C@]2(/C(C)=C/[C@@H](C)[C@@H]([C@@H](C)O)OC1=O)[C@@H]3[C@H](O)C(C)[C@@H]4CO (stereo partly drawn) [Example 163, (3R,4S,7S,8aS,10aR,11R,12R,14R,14aS,14bS,E)-14-hydroxy-4-((R)-1-hydroxyethyl)-12-(hydroxymethyl)-7-methoxy-1,3,13-trimethyl-3,4,8,8a,10a,11,12,13,14,14a-decahydro-11,14b-epoxynaphtho[2,1-e]oxecin-6(7H)-one] | – | – | 8 µg/mL (≈ 18.3 µM) | 8 µg/mL (≈ 18.3 µM) | > 128 µg/mL | > 128 µg/mL | > 229 µM | 0.687 µM | – | – | – | – | – | – | – |
| CO[C@H]1C[C@H]2C=C[C@H]3[C@H]4O[C@]2(/C(C)=C/[C@@H](C)[C@@H]([C@@H](C)OC(=O)NC(C)C)OC1=O)[C@@H]3[C@H](O)[C@@H](C)[C@H]4OC(=O)c1ccc[nH]1 [Example 9] | 49.9 µM | 0.0333 µM | 8 µg/mL (≈ 13.3 µM) | > 128 µg/mL | 8 µg/mL | 32 µg/mL (≈ 53.3 µM) | – | – | – | – | – | – | – | – | – |
| COC1CC2C=CC3C4OC2(C(C)=CC(C)C(C(C)OC(=O)NCCN2CCN(C)CC2)OC1=O)C3C(O)C(C)C4OC(=O)c1ccc[nH]1 (stereo not drawn) [Example 24] | – | – | 32 µg/mL (≈ 46.7 µM) | > 128 µg/mL | 32 µg/mL | > 128 µg/mL | > 146 µM | 0.00876 µM | – | – | – | – | – | – | – |
